Assay [1] deals with NADPH oxidase (macrophage membrane liposomes, cytochrome b558) (Cavia porcellus, UniProt H0UXC6). The format is biochemical, guinea pig.
In assay [2] the test system is NADPH oxidase in intact phagocytes / neutrophils. The arrangement: method as in 3 sources, one per row (each row's own in cited_ref): ref Cohen and Chovaniec, [1978]; Yamashita et al., [1984] ||| ref Le Cabec and Maridonneau-Parini, [1995] ||| ref Tsunawaki et al., [2004]. Conditions: cited from earlier work.
For assay [3], the system named is NADPH oxidase. The arrangement: method as in 8 sources, one per row (each row's own in cited_ref): ref Shpungin et al., [1989] ||| ref Bellavite et al., [1983]; Gabig and Lefker, [1984] ||| ref Pick et al., [1987] ||| ref Le Cabec and Maridonneau-Parini, [1995] ||| ref Nishida et al., [2005] ||| ... Conditions: cited from earlier work.
Assay [4] concerns Nox4. Details: method as in Serrander et al., [2007]. Conditions: ref Serrander et al., [2007]; cited from earlier work.
In assay [5] the test system is PDIA1. As to conditions: ref Xu et al., [2012]; cited from earlier work. From the text: Isomerization by PDI also requires the b′ domain (Ellgaard and Ruddock, [2005]) and, thus, an interact ...
Assay [6] deals with PDIA3. The arrangement: method as in Jasuja et al., [2012]. Conditions: ref Jasuja et al., [2012]; cited from earlier work.
Assay [7] has as its system PDI. The arrangement: method as in 2 sources, one per row (each row's own in cited_ref): ref Gallina et al., [2002]; Raturi et al., [2005] ||| ref Dickerhof et al., [2011]. Conditions: ref Dickerhof et al., [2011]; cited from earlier work.
Assay [8] has as its system p67^phox(1–212). The assay can be described thus: Effect of H2O2 on binding of p67phox(1–212) to Nox2 peptide 24. Conditions: p67^phox(1–212) 1.5 μM, H2O2 10 mM required (0.1, 1, 10 mM tested), 2 h at 4°C; three experiments (Figure 2C). The procedure: This assay was used to assess the binding of p67^phox, in solution, to surface-attached synthetic Nox2 peptides. The procedure is a modified version of that described before (Morozov et al., [1998]; Dahan et al., [2002]). A brief description of the procedure is presented here. Synthetic Nox2 peptides, with a biotin tag at either the N- or C-terminus, were diluted to a concentration of 1 μM in PBS supplemented with 1% casein. 200 μl/well volumes were added to streptavidin-coated 96 well plates (BioBind Assembly, streptavidin-coated, Cat. No. 95029263, Thermo Fisher Scientific) and the plates incubated for 1 h at room temperature, the well contents being mixed on an orbital shaker. […] Bound peroxidase was quantified as described for the protein—protein binding assay.
Figure 2 Treatment of p67^phox with N-ethylmaleimide (NEM), diamide, or H2O2 reverses the enhanced binding to Nox2 peptides containing an intramolecular disulfide bond. p67^phox(1–526) (1.5 μM) was incubated with NEM (0.1 mM) (A) or diamide (5 mM) (B), for 1 h at room temperature. p67^phox(1–212) (1.5 μM) was exposed to H2O2 (0.1, 1, or 10 mM) for 2 h at 4°C (C). […] The binding of treated and untreated p67^phox, in solution, to surface-attached Nox2 peptide 24 (357–371), with an N-terminal biotin tag, was measured. […]

Data on five molecules can be found in PMC4316792, “The dehydrogenase region of the NADPH oxidase component Nox2 acts as a protein disulfide isomerase (PDI) resembling PDIA3 with a role in the binding of the activator protein p67^phox” (Frontiers in Chemistry, 2015).

“Also recorded” adds a separate entry of the source.

`CN1C(=O)[C@]23CC4=CC=C[C@H](O)[C@H]4N2C(=O)[C@@]1(CO)SS3` [gliotoxin]: in assay [1], the “IC50, NADPH oxidase activation” value is given as “could not be determined” and the “inhibition of oxidase activation, in words” value (shortened to “inhibition … in words”) is on record as “poor inhibitor”. Also, the “inhibition of oxidase activation in neutrophils” value in assay [2] is given as “inhibit oxidase activation”. Further, the “inhibition of oxidase activation in vitro” value in assay [3] is listed as “marked inhibitory effect; also recorded: inhibit oxidase activation”. The “effect on Nox4” value in assay [4] is on record as “did not affect”.
Regarding PACMA 31, in assay [1], the “inhibition … in words” value is “Lack of an inhibitory effect”. Moreover, the “specificity for PDIA1” value in assay [5] is reported as “exquisite specificity”.
As for `C[C@@H]1O[C@@H](OC[C@H]2O[C@@H](Oc3c(-c4ccc(O)c(O)c4)oc4cc(O)cc(O)c4c3=O)[C@H](O)[C@@H](O)[C@@H]2O)[C@H](O)[C@H](O)[C@H]1O` [rutin], in assay [1], the “inhibition … in words” value was “Lack of an inhibitory effect”. Moreover, the “inhibitory effect on PDIA3” value in assay [6] is given as “lack an inhibitory effect”.
For the molecule bacitracin A, the “inhibitory potency on PDI” value in assay [7] is given as “low inhibitory potency”.
With `OO` [H2O2], the “effect of H2O2 treatment of p67phox on binding to peptide 24 in the disulfide form” value in assay [8] is “markedly reduced”. In addition, the “effect of exposure of phagocyte membranes on oxidase assembly” value in assay [3] (without effect on the assembled complex, ref Ostuni et al., [2010]) is given as “inhibits oxidase assembly”.
